Experimental findings from patent US7862642B2, “Extended-release urea-based granular fertilizer” (Georgia-Pacific Chemicals LLC, priority 2006, dated 2011) are described below.

Structures are written as SMILES. Where two headings read alike, the source gives them in different places.

The data set has as its system Kentucky bluegrass (Poa pratenis L.) turf stand. The note with it: visual scale 1-9 (1=no burn or discoloration, 6=moderate, 9=severe), 3 replications; for Mean Phytotoxicity Score DAT 3: 3 days after treatment; for Mean Phytotoxicity Score DAT 5: 5 days after treatment; for Mean Phytotoxicity Score DAT 13: 13 days after treatment; for Mean Phytotoxicity Score DAT 20: 20 days after treatment.

Description: SGN is defined as the median particle size (in millimeters), i.e., 50% of the particles (by weight) have a particle size above and below this number. The respective fertilizers were applied to a Kentucky bluegrass (Poa pratenis L.) turf stand at the Hancock Turfgrass Research Center on the campus of Michigan State University.
The experimental design was a randomized complete block design with 3 replications. Fertilizer treatments were applied at rates of 1, 2, and 6 lbs. Nitrogen/1000 ft^2. Treatments were applied with a hand shaker container over a 12 ft^2 area. Irrigation (0.25″ water) was not applied until 3 days after treatment application. Visual ratings were conducted on a scale 1-9 with 1=no burn or discoloration, 6=moderate burn or discoloration, and 9=severe burn or discoloration.

As for `NC(N)=O` [UREA, urea], where the note is “1 lb N/1000 ft^2”, the “Mean Phytotoxicity Score DAT 3” value turned out to be 1, the “Mean Phytotoxicity Score DAT 5” value was found to be 1, the “Mean Phytotoxicity Score DAT 13” value worked out at 1 and the “Mean Phytotoxicity Score DAT 20” value was 1. Also, under “2 lb N/1000 ft^2”, the “Mean Phytotoxicity Score DAT 3” value is 2.3, the “Mean Phytotoxicity Score DAT 5” value worked out at 3.7, the “Mean Phytotoxicity Score DAT 13” value was 2.3 and the “Mean Phytotoxicity Score DAT 20” value is 1. Besides, for the setting “6 lb N/1000 ft^2”, the “Mean Phytotoxicity Score DAT 3” value was determined as 7.7, the “Mean Phytotoxicity Score DAT 5” value is given as 8.2, the “Mean Phytotoxicity Score DAT 13” value is given as 7.7 and the “Mean Phytotoxicity Score DAT 20” value is recorded as 4.0.
